Experimental findings from patent publication US4079135A, “Morpholine derivatives as antidepressants” (Imperial Chemical Industries Limited, priority 1973, dated 1978) are described below.

Structures can show the parent of a compound that is named as a salt.

A word on the LD50: it is the dose expected to kill half of the subjects tested.

One data set can be described thus: Oral LD50 in mice. Conditions: mouse, in vivo, dosed orally. On the procedure:
The compound of the invention 2-(4H-2,3-dihydro-1,4-benzoxazin-3-one-4-ylmethyl)morpholine hydrogen oxalate has an LD50 in mice of 800 mg./kg. when dosed orally.

For data set [1], the system named is reserpine-induced hypothermia in mice. As to the kind of experiment: RHL test: reversal of reserpine-induced hypothermia in mice. The format is in vivo. The note with it: 4 hours, over a large number of tests, reserpine 2 mg./kg. s.c. 17 h before. On the procedure: This effect is the one primarily used in the art for establishing the relative antidepressant activity in a series of chemically-related compounds. […] Pharmacol., 1962, 14, 509. The RHL test is carried out as follows:-
Mice are kept in a constant temperature room maintained at 21° ± 1° C. Each member of groups of 4 mice is given reserpine (2 mg. of base per kg. bodyweight, given subcutaneously as the acetate). Seventeen hours later the oesophageal temperature (TO) of each mouse is recorded by means of an orally-inserted probe coupled to an electric thermometer which is calibrated in degree Centigrade and which can be read to 0.1° C. Immediately after the temperature measurement the mice are dosed orally with the test compound, or with imipramine, each mouse in a group of 4 being given the same substance, and the oesophageal temperatures are again recorded after 4 hours (T4). The compound under test is dosed at serial dilutions, e.g. 100, 30, 3, 1, 0.3, 0.1 mg./kg. Imipramine is used as the control. […] At 1 mg./kg. it produces an average rise of 1.7° C. A test compound which at a certain dose level gives a rise in temperature equal to or greater than that given by 1 mg./kg. of imipramine, dosed to a different set of mice on the same day, is adjudged "active" at that dose.

`O=C1COc2ccccc2N1CC1CNCCO1` (stereo not drawn) [2-(4H-2,3-dihydro-1,4-benzoxazin-3-one-4-ylmethyl)morpholine hydrogen oxalate] had an LD50 in “Oral LD50 in mice” of 800 mg/kg. `CN(C)CCCN1c2ccccc2CCc2ccccc21` [imipramine]: the “average rise in the temperature of a reserpinised mouse” value in data set [1] (1 mg./kg. oral) was 1.7 °C; in data set [1] (3 mg./kg. oral), 3 °C.
